Source: ChEMBL document CHEMBL2417435, “The discovery of potent blockers of the canonical transient receptor channels, TRPC3 and TRPC6, based on an anilino-thiazole pharmacophore” (Bioorg Med Chem Lett, 2013)
Values belong to the compound of their own block, whether it stands above or below them.

What was measured:
[1] = biological target: T1, Short transient receptor potential channel 3 (Homo sapiens, UniProt Q13507); test: Inhibition of human recombinant TRPC3 expressed in HEK293-MSRII cells assessed as carbachol-stimulated Ca2+/Na+ influx after 10 mins by FLIPR assay; type: cell-based
T1 sequence (Q13507 whole entry): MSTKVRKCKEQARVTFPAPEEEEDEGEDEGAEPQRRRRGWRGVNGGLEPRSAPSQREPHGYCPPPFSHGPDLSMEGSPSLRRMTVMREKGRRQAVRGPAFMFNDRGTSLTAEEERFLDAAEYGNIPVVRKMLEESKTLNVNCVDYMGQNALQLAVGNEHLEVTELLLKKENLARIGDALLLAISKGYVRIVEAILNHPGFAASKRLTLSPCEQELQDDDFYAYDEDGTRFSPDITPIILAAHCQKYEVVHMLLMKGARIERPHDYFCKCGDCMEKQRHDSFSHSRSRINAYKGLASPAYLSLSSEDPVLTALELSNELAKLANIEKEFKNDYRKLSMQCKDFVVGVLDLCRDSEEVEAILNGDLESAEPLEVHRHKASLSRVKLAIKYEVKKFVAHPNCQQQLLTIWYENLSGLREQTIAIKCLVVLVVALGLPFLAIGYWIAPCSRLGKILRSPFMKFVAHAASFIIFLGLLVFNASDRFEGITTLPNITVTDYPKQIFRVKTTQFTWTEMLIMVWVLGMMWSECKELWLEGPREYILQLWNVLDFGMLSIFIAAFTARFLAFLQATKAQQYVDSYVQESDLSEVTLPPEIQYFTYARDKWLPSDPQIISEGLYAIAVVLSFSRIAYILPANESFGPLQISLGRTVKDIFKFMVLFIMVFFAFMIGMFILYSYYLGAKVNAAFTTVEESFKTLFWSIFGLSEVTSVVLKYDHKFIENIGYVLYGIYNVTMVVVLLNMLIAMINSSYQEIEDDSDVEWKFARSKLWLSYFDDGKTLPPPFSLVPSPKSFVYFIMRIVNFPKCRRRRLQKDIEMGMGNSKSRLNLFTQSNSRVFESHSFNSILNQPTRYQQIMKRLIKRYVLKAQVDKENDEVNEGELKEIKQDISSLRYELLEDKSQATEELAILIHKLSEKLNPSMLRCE

[2] = biological target: T2, Short transient receptor potential channel 6 (Homo sapiens, UniProt Q9Y210); test: Inhibition of human recombinant TRPC6 expressed in HEK293-MSRII cells assessed as carbachol-stimulated Ca2+/Na+ influx after 10 mins by FLIPR assay; type: cell-based
T2 sequence (Q9Y210 whole entry): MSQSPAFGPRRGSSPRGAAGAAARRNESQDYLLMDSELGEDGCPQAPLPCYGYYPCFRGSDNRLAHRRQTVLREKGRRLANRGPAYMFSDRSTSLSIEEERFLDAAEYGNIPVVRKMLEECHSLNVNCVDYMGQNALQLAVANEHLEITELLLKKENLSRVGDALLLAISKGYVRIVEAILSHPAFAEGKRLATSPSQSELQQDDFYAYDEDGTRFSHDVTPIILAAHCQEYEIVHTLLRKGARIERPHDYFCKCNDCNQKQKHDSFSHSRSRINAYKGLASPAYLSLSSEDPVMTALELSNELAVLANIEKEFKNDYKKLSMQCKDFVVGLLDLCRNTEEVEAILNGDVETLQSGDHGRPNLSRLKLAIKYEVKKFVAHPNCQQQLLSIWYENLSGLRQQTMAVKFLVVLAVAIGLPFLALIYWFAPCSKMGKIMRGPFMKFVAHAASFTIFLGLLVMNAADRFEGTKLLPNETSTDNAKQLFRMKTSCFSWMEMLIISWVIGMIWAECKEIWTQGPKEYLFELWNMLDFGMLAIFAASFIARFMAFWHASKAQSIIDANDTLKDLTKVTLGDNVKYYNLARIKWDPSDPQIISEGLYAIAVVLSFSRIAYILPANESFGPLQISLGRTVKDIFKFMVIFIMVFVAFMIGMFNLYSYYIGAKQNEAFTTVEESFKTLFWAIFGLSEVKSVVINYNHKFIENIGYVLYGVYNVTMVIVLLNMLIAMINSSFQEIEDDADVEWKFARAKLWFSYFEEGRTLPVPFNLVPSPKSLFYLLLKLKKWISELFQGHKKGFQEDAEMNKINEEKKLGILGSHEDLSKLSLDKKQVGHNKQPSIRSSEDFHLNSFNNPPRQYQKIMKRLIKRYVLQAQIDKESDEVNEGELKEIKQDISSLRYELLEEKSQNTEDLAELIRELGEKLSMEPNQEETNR

[3] = Oral bioavailability in rat at 0.82 mg/kg; type: ADME, organism-based; settings: in vivo
[4] = biological target: Transient receptor potential cation channel subfamily V member 1 (Homo sapiens, UniProt Q8NER1); test: Inhibition of TRPV1 (unknown origin) by FLIPR assay
[5] = Mean residence time in rat at 0.82 mg/kg, iv; type: ADME, organism-based; parameters: dose 0.82 mg/kg, route intravenous; settings: in vivo
[6] = biological target: Transient receptor potential cation channel subfamily V member 4 (Homo sapiens, UniProt Q9HBA0); test: Inhibition of TRPV4 (unknown origin) by FLIPR assay
Rattus norvegicus [7] = test: Dose normalized AUC in rat at 0.82 mg/kg, iv; type: ADME, organism-based; parameters: dose 0.82 mg/kg, route intravenous; settings: in vivo
[8] = biological target: Sodium channel protein type 5 subunit alpha (Homo sapiens, UniProt Q14524); test: Inhibition of NaV1.5 channel (unknown origin) by patch express-based electrophysiology assay
[9] = biological target: Transient receptor potential cation channel subfamily A member 1 (Homo sapiens, UniProt O75762); test: Inhibition of TRPA1 (unknown origin) by FLIPR assay
[10] = Clearance in rat at 0.82 mg/kg, iv; type: ADME, organism-based; parameters: dose 0.82 mg/kg, route intravenous; settings: in vivo
[11] = biological target: Voltage-dependent L-type calcium channel subunit alpha-1C (Homo sapiens, UniProt Q13936); test: Inhibition of CaV1.2 channel (unknown origin) by patch express-based electrophysiology assay
[12] = Cmax in rat at 0.82 mg/kg, iv; type: ADME, organism-based; parameters: dose 0.82 mg/kg, route intravenous; settings: in vivo
[13] = Cmax in rat at 1.05 mg/kg, iv; type: ADME, organism-based; parameters: dose 1.05 mg/kg, route intravenous; settings: in vivo
[14] = Mean residence time in rat at 1.05 mg/kg, iv; type: ADME, organism-based; parameters: dose 1.05 mg/kg, route intravenous; settings: in vivo
Rattus norvegicus [15] = test: Dose normalized AUC in rat at 1.05 mg/kg, iv; type: ADME, organism-based; parameters: dose 1.05 mg/kg, route intravenous; settings: in vivo
[16] = Oral bioavailability in rat at 1.05 mg/kg; type: ADME, organism-based; settings: in vivo
[17] = Clearance in rat at 1.05 mg/kg, iv; type: ADME, organism-based; parameters: dose 1.05 mg/kg, route intravenous; settings: in vivo
[18] = Mean residence time in rat at 0.86 mg/kg, iv; type: ADME, organism-based; parameters: dose 0.86 mg/kg, route intravenous; settings: in vivo
[19] = Clearance in rat at 0.86 mg/kg, iv; type: ADME, organism-based; parameters: dose 0.86 mg/kg, route intravenous; settings: in vivo
Rattus norvegicus [20] = test: Dose normalized AUC in rat at 0.86 mg/kg, iv; type: ADME, organism-based; parameters: dose 0.86 mg/kg, route intravenous; settings: in vivo
[21] = Oral bioavailability in rat at 0.86 mg/kg; type: ADME, organism-based; settings: in vivo
[22] = Cmax in rat at 0.86 mg/kg, iv; type: ADME, organism-based; parameters: dose 0.86 mg/kg, route intravenous; settings: in vivo
Rattus norvegicus [23] = test: Dose normalized AUC in rat at 0.92 mg/kg, iv; type: ADME, organism-based; parameters: dose 0.92 mg/kg, route intravenous; settings: in vivo
[24] = Cmax in rat at 0.92 mg/kg, iv; type: ADME, organism-based; parameters: dose 0.92 mg/kg, route intravenous; settings: in vivo
Rattus norvegicus [25] = test: Volume of distribution at steady state in rat at 0.92 mg/kg, iv; type: ADME, organism-based; parameters: dose 0.92 mg/kg, route intravenous; settings: in vivo
Rattus norvegicus [26] = test: Mean residence time in rat at 0.92 mg/kg, iv; type: ADME, organism-based; parameters: dose 0.92 mg/kg, route intravenous; settings: in vivo
[27] = Oral bioavailability in rat at 0.92 mg/kg; type: ADME, organism-based; settings: in vivo

Sequence of Transient receptor potential cation channel subfamily A member 1 (O75762 whole entry): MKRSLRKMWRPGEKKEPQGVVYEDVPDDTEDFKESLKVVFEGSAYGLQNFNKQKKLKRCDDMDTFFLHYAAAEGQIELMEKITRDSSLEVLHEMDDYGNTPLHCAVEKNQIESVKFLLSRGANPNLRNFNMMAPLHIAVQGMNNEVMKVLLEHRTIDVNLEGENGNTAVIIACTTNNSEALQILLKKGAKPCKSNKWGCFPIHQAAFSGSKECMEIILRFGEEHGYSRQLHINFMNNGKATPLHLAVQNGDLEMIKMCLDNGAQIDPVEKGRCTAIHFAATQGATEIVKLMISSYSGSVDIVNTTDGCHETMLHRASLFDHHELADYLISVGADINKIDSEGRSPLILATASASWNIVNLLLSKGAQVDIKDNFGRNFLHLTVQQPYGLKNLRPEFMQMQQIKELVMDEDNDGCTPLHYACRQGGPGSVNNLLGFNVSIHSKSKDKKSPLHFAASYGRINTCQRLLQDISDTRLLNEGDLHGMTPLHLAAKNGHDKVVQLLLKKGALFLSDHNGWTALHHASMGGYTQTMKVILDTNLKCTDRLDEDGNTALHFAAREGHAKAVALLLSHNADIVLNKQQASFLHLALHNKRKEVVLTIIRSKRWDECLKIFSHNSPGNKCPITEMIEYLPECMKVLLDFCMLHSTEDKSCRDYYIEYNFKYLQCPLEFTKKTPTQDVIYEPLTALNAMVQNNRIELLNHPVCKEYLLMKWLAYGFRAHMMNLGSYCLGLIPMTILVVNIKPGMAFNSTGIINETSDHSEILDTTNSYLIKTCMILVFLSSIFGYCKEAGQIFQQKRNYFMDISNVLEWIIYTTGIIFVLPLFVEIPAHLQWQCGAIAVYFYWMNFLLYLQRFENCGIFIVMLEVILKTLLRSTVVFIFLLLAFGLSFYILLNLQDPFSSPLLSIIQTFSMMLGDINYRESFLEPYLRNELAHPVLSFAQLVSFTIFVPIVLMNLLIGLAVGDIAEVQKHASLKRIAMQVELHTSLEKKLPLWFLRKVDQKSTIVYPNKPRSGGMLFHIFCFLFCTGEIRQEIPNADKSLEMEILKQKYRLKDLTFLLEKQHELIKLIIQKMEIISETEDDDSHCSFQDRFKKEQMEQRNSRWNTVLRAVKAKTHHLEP
Sequence of Sodium channel protein type 5 subunit alpha (Q14524 whole entry): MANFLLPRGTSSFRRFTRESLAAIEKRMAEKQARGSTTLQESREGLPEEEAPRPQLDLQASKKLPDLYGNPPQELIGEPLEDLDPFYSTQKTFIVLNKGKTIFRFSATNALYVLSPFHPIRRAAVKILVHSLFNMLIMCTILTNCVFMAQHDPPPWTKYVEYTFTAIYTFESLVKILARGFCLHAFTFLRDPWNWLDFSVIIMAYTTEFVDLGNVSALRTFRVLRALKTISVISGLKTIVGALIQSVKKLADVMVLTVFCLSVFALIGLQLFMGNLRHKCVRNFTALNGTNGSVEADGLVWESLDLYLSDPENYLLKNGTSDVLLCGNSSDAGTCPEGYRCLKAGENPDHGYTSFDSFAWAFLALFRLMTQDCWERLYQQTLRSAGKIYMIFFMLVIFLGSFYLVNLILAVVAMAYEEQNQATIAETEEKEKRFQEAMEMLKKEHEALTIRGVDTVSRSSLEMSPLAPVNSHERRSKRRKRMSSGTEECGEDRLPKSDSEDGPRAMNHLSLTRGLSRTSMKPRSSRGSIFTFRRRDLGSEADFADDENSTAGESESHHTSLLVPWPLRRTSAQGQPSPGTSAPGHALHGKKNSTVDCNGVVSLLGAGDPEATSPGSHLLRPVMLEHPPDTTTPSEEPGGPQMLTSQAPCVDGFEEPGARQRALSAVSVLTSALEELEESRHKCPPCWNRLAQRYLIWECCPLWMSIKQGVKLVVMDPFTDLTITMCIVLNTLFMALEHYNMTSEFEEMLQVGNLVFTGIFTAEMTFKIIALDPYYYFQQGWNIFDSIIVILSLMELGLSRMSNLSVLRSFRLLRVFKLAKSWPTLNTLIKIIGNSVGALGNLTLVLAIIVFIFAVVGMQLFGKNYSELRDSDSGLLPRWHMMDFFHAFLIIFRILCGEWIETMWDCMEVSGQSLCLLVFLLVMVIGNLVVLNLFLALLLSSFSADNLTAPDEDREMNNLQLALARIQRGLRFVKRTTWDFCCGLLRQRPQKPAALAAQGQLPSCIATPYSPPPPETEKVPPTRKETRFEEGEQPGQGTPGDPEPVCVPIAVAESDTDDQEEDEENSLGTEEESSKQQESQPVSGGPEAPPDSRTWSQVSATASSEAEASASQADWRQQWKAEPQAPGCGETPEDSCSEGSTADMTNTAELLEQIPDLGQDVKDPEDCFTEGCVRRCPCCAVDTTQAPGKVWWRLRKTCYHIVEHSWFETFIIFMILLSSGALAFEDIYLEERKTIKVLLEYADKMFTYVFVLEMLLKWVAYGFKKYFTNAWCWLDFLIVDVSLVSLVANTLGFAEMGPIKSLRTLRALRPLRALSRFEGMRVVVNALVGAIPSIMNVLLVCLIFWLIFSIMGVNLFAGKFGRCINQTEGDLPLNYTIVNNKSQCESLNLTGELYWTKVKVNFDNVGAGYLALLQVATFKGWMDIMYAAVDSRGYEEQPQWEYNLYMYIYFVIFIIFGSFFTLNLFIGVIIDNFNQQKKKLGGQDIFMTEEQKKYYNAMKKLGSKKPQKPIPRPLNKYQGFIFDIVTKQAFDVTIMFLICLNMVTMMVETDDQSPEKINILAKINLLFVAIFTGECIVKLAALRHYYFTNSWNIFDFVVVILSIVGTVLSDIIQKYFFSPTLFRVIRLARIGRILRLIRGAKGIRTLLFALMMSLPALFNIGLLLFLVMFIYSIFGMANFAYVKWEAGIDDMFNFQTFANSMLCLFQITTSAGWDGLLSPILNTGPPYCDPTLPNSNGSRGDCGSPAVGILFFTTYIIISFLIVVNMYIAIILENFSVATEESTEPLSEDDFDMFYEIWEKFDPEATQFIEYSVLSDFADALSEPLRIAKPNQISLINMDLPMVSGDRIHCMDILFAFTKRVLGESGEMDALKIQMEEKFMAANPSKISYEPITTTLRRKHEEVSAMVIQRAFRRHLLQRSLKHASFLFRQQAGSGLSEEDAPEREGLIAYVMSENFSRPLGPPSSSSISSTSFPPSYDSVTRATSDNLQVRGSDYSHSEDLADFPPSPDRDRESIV
Sequence of Transient receptor potential cation channel subfamily V member 4 (Q9HBA0 whole entry): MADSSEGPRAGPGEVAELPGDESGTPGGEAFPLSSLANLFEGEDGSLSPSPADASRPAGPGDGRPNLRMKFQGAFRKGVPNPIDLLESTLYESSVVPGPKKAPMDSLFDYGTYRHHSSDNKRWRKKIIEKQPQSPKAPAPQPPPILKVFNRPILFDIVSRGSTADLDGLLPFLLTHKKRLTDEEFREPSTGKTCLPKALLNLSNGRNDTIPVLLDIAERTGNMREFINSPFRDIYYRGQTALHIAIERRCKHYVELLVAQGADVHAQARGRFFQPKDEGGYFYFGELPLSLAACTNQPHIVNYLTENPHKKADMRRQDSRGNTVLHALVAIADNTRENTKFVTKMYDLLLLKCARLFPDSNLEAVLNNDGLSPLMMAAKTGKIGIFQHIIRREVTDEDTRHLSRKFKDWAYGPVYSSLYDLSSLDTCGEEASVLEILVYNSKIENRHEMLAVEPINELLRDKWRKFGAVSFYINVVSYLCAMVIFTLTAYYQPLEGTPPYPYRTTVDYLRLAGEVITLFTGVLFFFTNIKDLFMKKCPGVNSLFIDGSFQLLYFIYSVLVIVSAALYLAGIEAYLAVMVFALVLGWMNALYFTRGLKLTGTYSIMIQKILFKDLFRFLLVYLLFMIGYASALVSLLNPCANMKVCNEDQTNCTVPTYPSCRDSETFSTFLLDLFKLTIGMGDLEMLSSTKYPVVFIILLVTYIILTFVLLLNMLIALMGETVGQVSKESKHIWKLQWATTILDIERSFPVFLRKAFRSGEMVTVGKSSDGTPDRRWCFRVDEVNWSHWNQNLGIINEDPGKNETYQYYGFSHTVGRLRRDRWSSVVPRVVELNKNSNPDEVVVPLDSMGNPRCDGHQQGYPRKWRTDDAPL
Sequence of Transient receptor potential cation channel subfamily V member 1 (Q8NER1 whole entry): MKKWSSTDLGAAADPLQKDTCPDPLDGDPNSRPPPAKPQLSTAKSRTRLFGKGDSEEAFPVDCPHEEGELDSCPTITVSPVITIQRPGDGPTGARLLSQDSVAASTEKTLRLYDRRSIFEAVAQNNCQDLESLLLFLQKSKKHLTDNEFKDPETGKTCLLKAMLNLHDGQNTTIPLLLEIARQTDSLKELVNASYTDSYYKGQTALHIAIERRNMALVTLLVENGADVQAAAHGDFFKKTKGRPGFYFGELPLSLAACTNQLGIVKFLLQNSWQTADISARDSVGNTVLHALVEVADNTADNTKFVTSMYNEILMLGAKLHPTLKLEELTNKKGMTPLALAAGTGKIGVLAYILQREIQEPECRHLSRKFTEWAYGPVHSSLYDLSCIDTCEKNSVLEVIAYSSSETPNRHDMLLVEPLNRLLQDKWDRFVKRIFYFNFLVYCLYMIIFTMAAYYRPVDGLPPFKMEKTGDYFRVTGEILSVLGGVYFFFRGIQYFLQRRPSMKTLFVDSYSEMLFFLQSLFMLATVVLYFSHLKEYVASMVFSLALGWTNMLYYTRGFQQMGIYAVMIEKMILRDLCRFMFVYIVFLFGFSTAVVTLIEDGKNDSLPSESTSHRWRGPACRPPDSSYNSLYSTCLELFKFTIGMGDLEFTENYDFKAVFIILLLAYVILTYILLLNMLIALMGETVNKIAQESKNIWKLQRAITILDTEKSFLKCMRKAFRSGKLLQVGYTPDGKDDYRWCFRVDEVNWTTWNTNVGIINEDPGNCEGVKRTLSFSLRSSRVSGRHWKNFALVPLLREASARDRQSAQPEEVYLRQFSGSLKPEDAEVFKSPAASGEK

Compound: CC1CCN(C(=O)c2csc(Nc3ccc(Cl)cc3F)n2)CC1
IC50 [1]: 1600 nM | IC50 [2]: 630 nM

Compound: Cc1sc(Nc2ccc(Cl)cc2F)nc1C(=O)N1CCC[C@H](C)[C@@H]1C
bioavailability [3]: 64% | IC50 [4]: 6300 nM | MRT [5]: 42 min | IC50 [6]: 12500 nM | IC50 [1]: 100 nM | AUC/dose (Rattus norvegicus [7]): 0.1 kg·L·h | IC50 [8]: 3300 nM | IC50 [2]: 16 nM | IC50 [9]: 25000 nM | clearance [10]: 150 mL/min/kg | IC50 [11]: 10000 nM | Cmax [12]: 120 ng/mL

Compound: Cc1ccc(Nc2nc(C(=O)N3CCC(C4CCCCC4)CC3)cs2)cc1
IC50 [1]: 6300 nM | IC50 [2]: 4000 nM

Compound: O=C(c1csc(Nc2ccc3c(c2)OCO3)n1)N1CCc2ccccc2C1
IC50 [1]: 500 nM | IC50 [2]: 160 nM

Compound: Cc1sc(Nc2ccc(Cl)cc2F)nc1C(=O)N1CCc2ncccc2C1
AUC/dose (Rattus norvegicus [23]): 0.85 kg·h/L | Cmax [24]: 510 ng/mL | IC50 [1]: 20000 nM | Vdss (Rattus norvegicus [25]): 0.7 L/kg | MRT (Rattus norvegicus [26]): 96 min | bioavailability [27]: 100% | IC50 [2]: 6300 nM

Continued, values first:

IC50 [1]: 316 nM | IC50 [2]: 63 nM
Compound: CC1c2ccccc2CCN1C(=O)c1csc(Nc2ccc3c(c2)OCO3)n1 (centres undefined)

IC50 [1]: 316 nM | IC50 [2]: 32 nM
Compound: Cc1sc(Nc2ccc3c(c2)OCO3)nc1C(=O)N1CCc2ccccc2C1C (centres undefined)

IC50 [1]: 250 nM | IC50 [2]: 50 nM
Compound: Cc1sc(Nc2ccc(Cl)cc2F)nc1C(=O)N1CCCC(C)C1C (racemic)

IC50 [1]: 800 nM | IC50 [2]: 800 nM
Compound: COc1ccc(Nc2nc(C(=O)N3CCC(C)CC3)cs2)cc1

IC50 [1]: 80 nM | IC50 [2]: 16 nM | Cmax [13]: 340 ng/mL | MRT [14]: 126 min | AUC/dose (Rattus norvegicus [15]): 0.2 kg·L·h | bioavailability [16]: < 1% | clearance [17]: 86 mL/min/kg
Compound: CC1CCCN(C(=O)c2csc(Nc3ccc4c(c3)OCO4)n2)C1C (centres undefined)

IC50 [1]: 1000 nM | IC50 [2]: 1600 nM
Compound: Cc1sc(Nc2ccc(Cl)cc2F)nc1C(=O)N1CCC[C@@H](C)[C@H]1C

IC50 [1]: 32 nM | MRT [18]: 24 min | clearance [19]: 46 mL/min/kg | AUC/dose (Rattus norvegicus [20]): 0.3 kg·L·h | IC50 [2]: 4 nM | bioavailability [21]: 7% | Cmax [22]: 490 ng/mL
Compound: CC1CCCN(C(=O)c2nc(Nc3cc4c(cc3F)OCO4)sc2Cl)C1C (centres undefined)
